This test addresses Rho-associated protein kinase 2 (Homo sapiens, UniProt O75116). The experiment in a line: In Vitro Assay: The effectiveness of compounds of the present invention as ROCK inhibitors can be determined in a 30 μL assay containing 20 mM HEPES, pH 7.5, 20 mM MgCl2, 0.015% Brij-35, 4 mM DTT, 5 μM ATP and 1.5 μM peptide substrate (FITC-AHA-[…]-OH). Compounds were dissolved in DMSO so that the final concentration of DMSO was <2%, and the reaction was initiated with Rho kinase variants. After incubation, the reaction was terminated by the addition of EDTA and the phosphorylated and non-phosphorylated peptides separated using a LABCHIP® 3000 Reader (Caliper Life Sciences).

Each structure is given as a SMILES string.

Chain of Rho-associated protein kinase 2 (O75116 whole entry, looked up, change not shown): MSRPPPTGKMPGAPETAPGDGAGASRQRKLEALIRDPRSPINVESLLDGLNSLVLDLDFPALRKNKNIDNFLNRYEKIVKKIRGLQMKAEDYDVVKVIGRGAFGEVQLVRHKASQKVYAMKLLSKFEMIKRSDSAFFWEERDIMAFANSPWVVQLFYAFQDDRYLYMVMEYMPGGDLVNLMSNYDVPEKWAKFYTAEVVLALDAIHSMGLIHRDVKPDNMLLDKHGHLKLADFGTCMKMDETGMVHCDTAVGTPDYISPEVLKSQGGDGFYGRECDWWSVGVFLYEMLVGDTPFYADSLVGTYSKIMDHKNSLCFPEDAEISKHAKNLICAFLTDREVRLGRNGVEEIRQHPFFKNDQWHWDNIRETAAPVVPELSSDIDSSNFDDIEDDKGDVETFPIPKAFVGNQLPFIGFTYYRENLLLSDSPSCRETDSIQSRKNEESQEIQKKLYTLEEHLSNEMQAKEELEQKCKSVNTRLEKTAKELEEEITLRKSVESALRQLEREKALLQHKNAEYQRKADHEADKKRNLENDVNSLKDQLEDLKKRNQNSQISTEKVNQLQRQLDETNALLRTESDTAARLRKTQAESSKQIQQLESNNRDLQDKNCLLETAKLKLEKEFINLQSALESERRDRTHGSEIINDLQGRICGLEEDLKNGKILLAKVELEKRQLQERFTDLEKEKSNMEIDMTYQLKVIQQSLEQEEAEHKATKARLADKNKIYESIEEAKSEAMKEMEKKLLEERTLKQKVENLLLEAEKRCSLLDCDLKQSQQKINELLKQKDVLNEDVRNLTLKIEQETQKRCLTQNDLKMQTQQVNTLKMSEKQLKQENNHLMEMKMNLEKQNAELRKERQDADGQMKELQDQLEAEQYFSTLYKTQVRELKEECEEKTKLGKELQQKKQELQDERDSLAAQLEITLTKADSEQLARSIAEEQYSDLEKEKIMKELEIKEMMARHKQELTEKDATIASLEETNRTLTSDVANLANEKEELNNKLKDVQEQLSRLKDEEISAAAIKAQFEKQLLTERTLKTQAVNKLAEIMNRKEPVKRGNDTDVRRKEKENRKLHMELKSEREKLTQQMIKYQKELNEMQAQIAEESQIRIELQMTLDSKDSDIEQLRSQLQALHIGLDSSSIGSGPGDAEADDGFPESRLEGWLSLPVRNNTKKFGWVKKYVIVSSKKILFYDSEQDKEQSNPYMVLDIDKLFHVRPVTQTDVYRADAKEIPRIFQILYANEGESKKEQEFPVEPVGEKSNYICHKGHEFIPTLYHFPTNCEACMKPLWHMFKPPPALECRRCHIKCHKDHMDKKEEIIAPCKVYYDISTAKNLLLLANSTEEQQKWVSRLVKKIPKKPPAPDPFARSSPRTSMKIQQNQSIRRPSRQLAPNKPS

`COc1cc(C(=O)NCC2=CCC3NC(=O)NC3=C2)ccc1-c1cn[nH]c1` (stereo unspecified) gave an IC50 of 662 nM.

(Values after ChEMBL document CHEMBL3886981, “Phenylpyrazole derivatives as potent ROCK1 and ROCK2 inhibitors” (2016).)
